{
  "source": "patent US20100041630A1",
  "about": "“Methods for Treating or Preventing Inflammation Using a Glycerophosphate Salt” (PRELIEF INC., priority 2007, published 2010)",
  "test_system": "rats with inflammatory condition associated with polyarthritis",
  "assay": "Therapeutic effectiveness in rats with polyarthritis induced by heat-killed Mycobacterium tuberculosis",
  "assay_type": "in vivo",
  "conditions": "therapeutically effective amount, injection 1 to 5 times a day for 3-10 days, polyarthritic rats",
  "data": [
    {"substance": "calcium glycerophosphate [CGP]", "values": [
      {"measurement": "reduction of the overall arthritis score", "value": "at least 20%"}
    ]}
  ]
}
